Data from ChEMBL document CHEMBL6121066, “Structure-Activity Relationship Studies of DNA Methyltransferase 1 Monovalent Degraders” (J Med Chem, 2025).
Active and inactive are the calls of the source. The calls are words filed in the database; no cut-off is given here.

Columns and labels:
[1] = target: Protein arginine N-methyltransferase 6 (Homo sapiens) (UniProt Q96LA8); assay: Inhibition of human PRMT6 using GST-GAR and SAM as substrate at 1 uM by radioisotope-based MT HotSpot assay relative to control
HCT-116 [2] = assay: Induction of molecular glue effect mediated DNMT1 degradation in human HCT-116 cells transfected with NEDD4 siRNA assessed as reduction in DNMT1 protein level at 100 nM measured after 24 hrs by Western blot analysis; format: cell-based
HCT-116 [3] = assay: Induction of molecular glue effect mediated DNMT1 degradation in human HCT-116 cells assessed as reduction in DNMT1 protein level at 500 nM measured after 2 hrs by Western blot analysis relative to control; format: cell-based; design: scale not given: the % may be the effect or the level left
HCT-116 [4] = assay: Induction of molecular glue effect mediated DNMT3B degradation in human HCT-116 cells assessed as reduction in DNMT3B protein level at 500 nM incubated for 24 hrs by Western blot analysis; format: cell-based
HCT-116 [5] = assay: Antiproliferative activity against human HCT-116 cells assessed as inhibition of cell growth upto 15 uM incubated for 7 days by CCK8 assay relative to control; format: functional; conditions: time 7 day, up to 15 µM
[6] = target: Protein arginine N-methyltransferase 1 (Homo sapiens) (UniProt Q99873); assay: Inhibition of human PRMT1 using histone H4 and SAM as substrate at 1 uM by radioisotope-based MT HotSpot assay relative to control
[7] = target: T1, Histone-arginine methyltransferase CARM1 (Homo sapiens) (UniProt Q86X55); assay: Inhibition of human PRMT4 using histone H3 and SAM as substrate at 1 uM by radioisotope-based MT HotSpot assay relative to control
T1 sequence (whole entry): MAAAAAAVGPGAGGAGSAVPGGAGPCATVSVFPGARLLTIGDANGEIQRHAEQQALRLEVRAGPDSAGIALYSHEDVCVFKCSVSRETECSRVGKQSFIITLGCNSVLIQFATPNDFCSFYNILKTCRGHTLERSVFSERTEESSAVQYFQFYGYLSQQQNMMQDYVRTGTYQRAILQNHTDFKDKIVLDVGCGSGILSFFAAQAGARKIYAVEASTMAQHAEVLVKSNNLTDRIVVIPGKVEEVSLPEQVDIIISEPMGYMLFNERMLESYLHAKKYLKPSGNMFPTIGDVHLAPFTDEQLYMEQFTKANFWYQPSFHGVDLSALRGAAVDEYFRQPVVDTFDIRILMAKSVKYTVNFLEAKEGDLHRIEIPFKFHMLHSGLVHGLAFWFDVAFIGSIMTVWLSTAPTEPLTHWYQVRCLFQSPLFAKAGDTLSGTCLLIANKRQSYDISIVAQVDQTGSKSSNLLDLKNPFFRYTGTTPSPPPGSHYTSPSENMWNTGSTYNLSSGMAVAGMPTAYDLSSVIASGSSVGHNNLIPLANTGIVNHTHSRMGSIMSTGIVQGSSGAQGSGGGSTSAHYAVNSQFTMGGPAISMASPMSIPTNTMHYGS

HCT-116 [8] = assay: Induction of molecular glue effect mediated DNMT1 degradation in human HCT-116 cells transfected with UHRF1 siRNA assessed as reduction in DNMT1 protein level at 100 nM measured after 24 hrs by Western blot analysis; format: cell-based
HCT-116 [9] = assay: Induction of molecular glue effect mediated DNMT1 degradation in human HCT-116 cells assessed as reduction in DNMT1 protein level at 100 nM preincubated with lysosome inhibitor CQ for 2 hrs followed by compound addition and measured after 24 hrs by Western blot analysis; format: cell-based
[10] = target: T2, Histone-lysine N-methyltransferase EHMT1 (Homo sapiens) (UniProt Q9H9B1); assay: Inhibition of human GLP using Histone H3 and SAM as substrate at 1 uM by radioisotope-based MT HotSpot assay relative to control
T2 sequence (whole entry): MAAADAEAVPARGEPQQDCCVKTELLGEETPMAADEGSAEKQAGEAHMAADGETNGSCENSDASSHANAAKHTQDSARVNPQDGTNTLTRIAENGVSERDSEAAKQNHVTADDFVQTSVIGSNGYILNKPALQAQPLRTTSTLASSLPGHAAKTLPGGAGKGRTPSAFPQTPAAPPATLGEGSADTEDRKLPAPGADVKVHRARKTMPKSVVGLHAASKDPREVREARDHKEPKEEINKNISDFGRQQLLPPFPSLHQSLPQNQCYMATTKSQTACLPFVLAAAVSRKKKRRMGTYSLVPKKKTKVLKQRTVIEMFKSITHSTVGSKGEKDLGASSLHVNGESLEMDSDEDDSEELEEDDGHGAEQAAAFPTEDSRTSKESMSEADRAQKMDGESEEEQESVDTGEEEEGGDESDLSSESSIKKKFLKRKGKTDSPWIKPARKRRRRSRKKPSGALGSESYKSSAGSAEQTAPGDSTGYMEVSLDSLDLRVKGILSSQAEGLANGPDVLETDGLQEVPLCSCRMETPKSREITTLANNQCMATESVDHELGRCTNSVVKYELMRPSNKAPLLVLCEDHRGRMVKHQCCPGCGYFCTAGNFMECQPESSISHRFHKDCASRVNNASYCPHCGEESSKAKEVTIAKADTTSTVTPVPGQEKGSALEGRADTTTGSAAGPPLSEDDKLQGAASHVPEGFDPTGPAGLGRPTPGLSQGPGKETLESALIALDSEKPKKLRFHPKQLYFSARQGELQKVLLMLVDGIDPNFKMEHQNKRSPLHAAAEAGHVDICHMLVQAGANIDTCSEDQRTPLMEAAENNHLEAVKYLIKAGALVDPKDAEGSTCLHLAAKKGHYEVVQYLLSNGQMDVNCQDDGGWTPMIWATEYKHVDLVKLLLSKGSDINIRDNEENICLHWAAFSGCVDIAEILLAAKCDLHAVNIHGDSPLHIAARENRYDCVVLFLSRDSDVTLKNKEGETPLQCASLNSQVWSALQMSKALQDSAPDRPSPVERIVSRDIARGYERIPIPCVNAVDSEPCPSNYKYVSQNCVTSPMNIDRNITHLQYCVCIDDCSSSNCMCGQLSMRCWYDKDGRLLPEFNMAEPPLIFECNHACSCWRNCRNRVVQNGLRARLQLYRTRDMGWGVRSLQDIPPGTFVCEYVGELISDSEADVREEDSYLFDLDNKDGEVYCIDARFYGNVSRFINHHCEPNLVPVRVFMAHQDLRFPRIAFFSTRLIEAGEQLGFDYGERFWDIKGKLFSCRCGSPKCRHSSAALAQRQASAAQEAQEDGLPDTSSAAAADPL

[11] = target: Histone-lysine N-methyltransferase, H3 lysine-79 specific (Homo sapiens) (UniProt Q8TEK3); assay: Inhibition of human DOT1L using oligo nucleosomes and SAM as substrate at 1 uM by radioisotope-based MT HotSpot assay relative to control
MDA-MB-468 = assay: Antiproliferative activity against human MDA-MB-468 cells assessed as inhibition of cell growth upto 10 uM incubated for 7 days by CCK8 assay relative to control; format: functional; conditions: time 7 day, up to 10 µM

Sequence of Histone-lysine N-methyltransferase, H3 lysine-79 specific (Homo sapiens) (Q8TEK3 whole entry, looked up): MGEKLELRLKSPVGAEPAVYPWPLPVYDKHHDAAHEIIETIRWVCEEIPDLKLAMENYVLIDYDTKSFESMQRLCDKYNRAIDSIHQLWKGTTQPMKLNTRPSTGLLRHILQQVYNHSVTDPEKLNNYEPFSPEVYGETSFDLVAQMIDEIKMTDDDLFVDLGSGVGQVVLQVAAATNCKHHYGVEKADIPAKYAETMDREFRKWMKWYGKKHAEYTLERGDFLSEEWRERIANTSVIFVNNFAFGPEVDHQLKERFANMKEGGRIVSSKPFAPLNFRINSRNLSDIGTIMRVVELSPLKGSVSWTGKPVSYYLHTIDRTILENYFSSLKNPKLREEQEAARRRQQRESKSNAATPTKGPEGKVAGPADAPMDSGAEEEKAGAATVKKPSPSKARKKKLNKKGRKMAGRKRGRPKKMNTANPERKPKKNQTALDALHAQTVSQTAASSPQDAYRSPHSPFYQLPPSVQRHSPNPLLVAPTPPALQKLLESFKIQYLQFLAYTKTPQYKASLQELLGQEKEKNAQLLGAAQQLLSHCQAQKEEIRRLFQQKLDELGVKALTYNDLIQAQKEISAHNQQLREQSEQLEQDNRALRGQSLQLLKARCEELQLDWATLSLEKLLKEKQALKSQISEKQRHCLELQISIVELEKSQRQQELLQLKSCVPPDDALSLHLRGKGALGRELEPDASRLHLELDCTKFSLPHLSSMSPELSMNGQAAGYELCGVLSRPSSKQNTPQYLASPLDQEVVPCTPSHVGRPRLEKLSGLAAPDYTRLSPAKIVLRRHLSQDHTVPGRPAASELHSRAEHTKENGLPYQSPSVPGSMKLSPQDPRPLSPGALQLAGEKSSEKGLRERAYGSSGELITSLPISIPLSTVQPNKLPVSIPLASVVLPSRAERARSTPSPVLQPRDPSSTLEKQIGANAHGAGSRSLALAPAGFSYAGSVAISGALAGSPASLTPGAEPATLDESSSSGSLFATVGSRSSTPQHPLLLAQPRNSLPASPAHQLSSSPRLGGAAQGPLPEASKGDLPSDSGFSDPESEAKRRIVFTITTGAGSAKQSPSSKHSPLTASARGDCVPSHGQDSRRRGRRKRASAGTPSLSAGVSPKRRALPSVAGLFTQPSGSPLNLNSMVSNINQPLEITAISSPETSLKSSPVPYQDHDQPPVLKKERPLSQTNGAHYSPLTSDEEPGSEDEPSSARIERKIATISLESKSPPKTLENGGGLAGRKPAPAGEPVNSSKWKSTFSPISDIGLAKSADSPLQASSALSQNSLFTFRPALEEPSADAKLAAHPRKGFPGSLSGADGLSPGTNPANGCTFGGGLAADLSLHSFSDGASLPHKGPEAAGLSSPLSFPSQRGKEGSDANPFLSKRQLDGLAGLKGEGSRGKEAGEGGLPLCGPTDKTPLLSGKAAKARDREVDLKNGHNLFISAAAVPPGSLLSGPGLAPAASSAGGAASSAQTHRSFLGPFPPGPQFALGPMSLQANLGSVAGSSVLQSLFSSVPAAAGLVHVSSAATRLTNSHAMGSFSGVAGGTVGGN
Sequence of Protein arginine N-methyltransferase 1 (Homo sapiens) (Q99873 whole entry, looked up): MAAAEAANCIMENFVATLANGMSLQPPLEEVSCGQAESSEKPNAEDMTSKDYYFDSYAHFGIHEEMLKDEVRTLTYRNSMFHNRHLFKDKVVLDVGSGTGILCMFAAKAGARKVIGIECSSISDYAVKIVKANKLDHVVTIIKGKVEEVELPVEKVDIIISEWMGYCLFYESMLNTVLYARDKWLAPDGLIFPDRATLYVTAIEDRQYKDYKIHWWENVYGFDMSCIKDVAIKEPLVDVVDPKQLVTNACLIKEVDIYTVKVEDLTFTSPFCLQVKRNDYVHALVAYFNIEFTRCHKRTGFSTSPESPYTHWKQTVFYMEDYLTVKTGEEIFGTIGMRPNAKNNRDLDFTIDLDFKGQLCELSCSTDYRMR
Sequence of Protein arginine N-methyltransferase 6 (Homo sapiens) (Q96LA8 whole entry, looked up): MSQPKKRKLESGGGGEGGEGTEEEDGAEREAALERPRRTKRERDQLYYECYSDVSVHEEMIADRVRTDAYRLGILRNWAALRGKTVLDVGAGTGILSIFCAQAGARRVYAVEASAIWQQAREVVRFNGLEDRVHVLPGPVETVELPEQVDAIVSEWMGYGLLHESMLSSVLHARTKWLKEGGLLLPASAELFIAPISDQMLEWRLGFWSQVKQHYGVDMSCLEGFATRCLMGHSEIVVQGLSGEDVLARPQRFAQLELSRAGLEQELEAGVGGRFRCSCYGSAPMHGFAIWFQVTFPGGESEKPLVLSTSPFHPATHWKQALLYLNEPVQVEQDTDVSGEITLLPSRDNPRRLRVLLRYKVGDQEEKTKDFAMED

inhibition [1]: < 20% | inhibition [6]: < 20% | inhibition [7]: < 20% | inhibition [10]: < 20% | inhibition [11]: < 20%
Structure (SMILES): CCc1c(C#N)c(SC(C(N)=O)c2ccccc2)nc(N(C)CC(=O)NC)c1C#N (configuration not stated)
Activity (HCT-116 [2]): Active | Activity (HCT-116 [3]): 50% | Activity (HCT-116 [4]): inactive | inhibition (INH) (HCT-116 [5]): <50% | Activity (HCT-116 [8]): Not active; Partial Rescue Of Degradation Observed | Activity (HCT-116 [9]): Active | inhibition (INH) (MDA-MB-468): <50%
